# Test results: PMC12070314, “Efficient Small-Molecule Reversal Agents for Anticoagulant Fondaparinux” (ACS Pharmacology & Translational Science, 2025)
# Experiments:
# [1] = Fluorescence titration with fondaparinux; type: binding; conditions: for Kd: read-out: Apparent overall affinity for fond, K D^app ≈ BC50°
# Description: The fluorescence emission spectrum of 3AC upon excitation at 280 nm is a suitable indicator of the interaction with heparin-like GAGs. Thus, the titration of 3AC with fond in Bis-Tris buffer at pH 7.5 produced a perturbation of the corresponding intensity of the fluorene emission band (Figure A), presenting two clearly differentiated phases. At a low fond/3AC ratio, the fluorescence emission intensity decreases most likely due to the proximity of chromophores when several molecules of 3AC are closely bound to one molecule of fond. After reaching a fond/3AC molar ratio of ∼0.6, the emission band starts to recover as 3AC molecules are redistributed to equimolecular complexes with fond. Considering the disaccharide repeating unit of heparin as the main binding epitope of our ligands and the electrostatic charge complementarity, we can hypothesize the formation of fond/3AC supramolecular complexes with both 1:1 and 1:2 stoichiometries as the simplest binding model satisfying the two-phase behavior (Figure B). The emission band variation was successfully fitted to the 1:2 fond/3AC equilibria, rendering the formation constants (log β values) for the corresponding complexes (inset in Figure A).
# Fluorescence emission and excitation spectra were collected on a Photon Technology International Instrument, Fluorescence Master Systems, using Felix32 software and cuvettes with 10 mm path length. Stock solutions of 3AC (10 μM) and fondaparinux (0.23 mM, also containing 10 μM 3AC) were prepared in 1 mM Bis-Tris buffer at pH 7.5. Then, 2 mL of binder solution was placed on a quartz cell, and the emission fluorescence spectrum was measured upon excitation at 280 nm. Then, small volumes of fond stock solution were added to the cell, and the fluorescence spectra were acquired after each addition. The titration experiments were fitted using HyperSpec 2008 software, , which allows a nonlinear global fitting of the full emission spectra to a binding mode as defined by the user.
# [2] = NMR titration and DOSY binding study with fondaparinux; conditions: water (D2O buffer), neutral pH
# Description: The [3AC–fond] binding was additionally studied by NMR. Titration of fond with 3AC modifies several ^1H and ^13C NMR signals that can be readily monitored by ^1H and ^1H–^13C HSQC NMR experiments (Figures and S5–S7). A close analysis of the corresponding chemical-shift perturbations (Figures C and S8) allows determination of the sugar rings to be more affected by the presence of the ligand (see the chemical structure with arbitrary labeling of the rings in Figure A). We hypothesized that [fond–3AC] binding occurs by polar interactions (through the ammonium and OH groups of 3AC with sulfate, carboxylate, and OH residues of fond) and nonpolar contacts (by CH–π interactions between aromatic rings of 3AC and pyranose CH bonds of fond). […] The corresponding ^1H NMR spectra in 90% H2O/10% D2O at pH 8.2 and 288 K allow detection of the NH-sulfamate protons (Figures D and S9) and confirmed the stronger perturbation of ring V. The conformational behavior of fond in the absence and presence of 3AC was additionally studied by acquiring a series of 2D NOESY and 2D ROESY spectra (Figures S10–S13). […]
# One- and two-dimensional (1D and 2D) NMR experiments were performed at 298 K on a 500 MHz Bruker AVANCE III HD instrument equipped with a z-gradient (65.7 G cm^–1) inverse TCI-cryoprobe. Samples were dissolved in 5 mM Tris-d11 buffer with 50 mM NaCl (in D2O, pH 7.5, uncorrected pH meter reading). […]
SMILES,Kd ([1]; 1 mM Bis-Tris buffer pH 7.5) [µM],"Stepwise binding constant K (1:1) ([1]; fond/3AC 1:1 complex, 1 mM Bis-Tris buffer pH 7.5)","Stepwise binding constant K (1:2) ([1]; fond/3AC 1:2 complex, 1 mM Bis-Tris buffer pH 7.5)","logβ(3AC-Fond) ([1]; formation constant from model fitting, 1:1 complex)","logβ(3AC2-Fond) ([1]; formation constant from model fitting, 1:2 fond/3AC complex)",Binding to fond by NMR [2]
Oc1ccccc1CNCCCNCCCCNCCCNCc1ccc2c(c1)Cc1ccccc1-2 [Compound 3AC],4.5 ± 0.09,2.05 ± 0.05 × 10^5 M^–1,1.95 ± 0.19 × 10^4 M^–1,5.31(1),9.60(3),strong binding
Oc1ccc2ccccc2c1CNCCCNCCCCNCCCNCc1c(O)ccc2ccccc12 [Compound 3FF],9.8 ± 0.3,–,–,–,–,slightly weaker binding
